How the values were obtained:
Format in all cases: cell-based
GLUT1 = molecular target: T1, GLUT1 (Homo sapiens, UniProt P11166); assay: [3H]2-DG uptake into LNCaP cells overexpressing GLUT1; conditions: for IC50: LNCaP cells overexpressing GLUT1, read-out: IC50 in inhibiting GLUT1-mediated [3H]2-DG uptake; for inhibition at 5 µM: LNCaP cells transfected with GLUT1, 30 min
T1 construct: The full length GLUT1, GLUT4, and GLUT9 ORF cDNA clones were purchased from Addgene; EGFP (from the pEGFP-N2 vector); host or cells: LNCaP
T1 sequence (P11166 1-492): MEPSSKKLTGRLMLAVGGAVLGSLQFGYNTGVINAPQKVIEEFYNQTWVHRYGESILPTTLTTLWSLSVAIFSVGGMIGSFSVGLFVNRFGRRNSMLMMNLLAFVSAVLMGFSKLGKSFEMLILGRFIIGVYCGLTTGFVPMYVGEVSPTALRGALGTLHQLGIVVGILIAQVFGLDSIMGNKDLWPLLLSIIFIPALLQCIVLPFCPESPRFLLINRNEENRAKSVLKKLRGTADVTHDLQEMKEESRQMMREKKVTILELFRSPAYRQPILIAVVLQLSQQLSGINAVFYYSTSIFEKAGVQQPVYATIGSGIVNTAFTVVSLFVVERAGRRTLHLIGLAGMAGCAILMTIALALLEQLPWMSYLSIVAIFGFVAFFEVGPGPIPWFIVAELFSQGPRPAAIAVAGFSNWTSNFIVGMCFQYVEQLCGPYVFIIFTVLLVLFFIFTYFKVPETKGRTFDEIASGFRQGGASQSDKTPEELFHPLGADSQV
Text: (§1) As information regarding the expression pattern of individual GLUT members in LNCaP cells was lacking, quantitative real time polymerase chain reaction (qRT-PCR) was used to assess the mRNA levels of the hypoxia-responsive GLUT1 and GLUT3, and three other representative GLUT members, including the class I GLUT2 and GLUT4 and the class II GLUT9. Among these five members, LNCaP cells expressed GLUT1 and, to a much lesser extent, GLUT9, while the mRNA levels of GLUTs2-4 were negligible (FIG. 3B). To examine the isoform specificity of these inhibitors, LNCaP cells were ectopically transfected with plasmids encoding GLUT1, GLUT3, GLUT4, or GLUT9 vis-à-vis the pCMV control vector so that the increased glucose uptake in GLUT-transfected cells relative to pCMV control cells was indicative of the activity of the ectopically expressed GLUT protein.
(§2) Glucose Uptake Assay. LNCaP cells were seeded in six-well plates (3×10^5 cells/well) for 24 h. Cells were washed twice with Krebs-Ringer phosphate buffer (126 mM NaCl, 2.5 mM KCl, 25 mM NaHCO3, 1.2 mM NaH2PO4, 1.2 mM MgCl2, 2.5 mM CaCl2, pH 7.4) and were then treated with individual agents in Krebs-Ringer phosphate buffer. After 1.5 h, glucose uptake was initiated by adding 1 mL Krebs-Ringer buffer containing […] [^3H]2-DG (PerkinElmer Life Science) and […] non-radioactive 2-DG and was terminated by washing with cold PBS. The cells were lysed in […] lysis buffer (10 mM Tris-HCl pH 8.0, 0.1% SDS) and aliquots were taken for measurement of radioactivity using a scintillation counter (Beckman LS6500).
Plasmid Construction, Transient Transfection and Immunoblotting. The full length GLUT1, GLUT4, and GLUT9 ORF cDNA clones were purchased from Addgene (Cambridge, Mass.) and GLUT3 ORF cDNA was purchased from Origene Technologies (Rockville, Md.). GLUT1, GLUT3, and GLUT9 were subcloned into the HindIII/SalI sites and GLUT4 was subcloned into the EcoRI/SalI sites of pEGFP-N2 expression vector (Clontech, Palo Alto, Calif.). Transfections were performed by electroporation using Nucleofector kit R of the Amaxa Nucleofector system (Lonza, Walkersville, Md.) according to the manufacturer's protocol. Immunoblotting was performed using cells lysates harvested with SDS lysis buffer (1% SDS, 50 mM Tris-HCl pH 8.0, 10 mM EDTA) containing 1× protease inhibitor cocktail (Sigma) and phosphatase inhibitor and were electrophoresed in 8˜12% SDS polyacrylamide gels and then transferred onto nitrocellulose membranes. After blotting in 5% nonfat dry milk, the membranes were incubated with primary antibodies at 1:1,000 dilution in TBS-Tween 20 overnight at 4° C., and then secondary antibodies conjugated with horseradish peroxidase at 1:5,000 dilution in TBS-Tween 20 for 1 hour at room temperature. […]

GLUT4 = molecular target: T2, GLUT4 (Homo sapiens, UniProt P14672); assay: [3H]2-DG uptake into LNCaP cells overexpressing GLUT4; conditions: for inhibition at 5 µM: LNCaP cells transfected with GLUT4, 30 min
T2 construct: The full length GLUT1, GLUT4, and GLUT9 ORF cDNA clones were purchased from Addgene; host or cells: LNCaP
T2 sequence (P14672 1-509): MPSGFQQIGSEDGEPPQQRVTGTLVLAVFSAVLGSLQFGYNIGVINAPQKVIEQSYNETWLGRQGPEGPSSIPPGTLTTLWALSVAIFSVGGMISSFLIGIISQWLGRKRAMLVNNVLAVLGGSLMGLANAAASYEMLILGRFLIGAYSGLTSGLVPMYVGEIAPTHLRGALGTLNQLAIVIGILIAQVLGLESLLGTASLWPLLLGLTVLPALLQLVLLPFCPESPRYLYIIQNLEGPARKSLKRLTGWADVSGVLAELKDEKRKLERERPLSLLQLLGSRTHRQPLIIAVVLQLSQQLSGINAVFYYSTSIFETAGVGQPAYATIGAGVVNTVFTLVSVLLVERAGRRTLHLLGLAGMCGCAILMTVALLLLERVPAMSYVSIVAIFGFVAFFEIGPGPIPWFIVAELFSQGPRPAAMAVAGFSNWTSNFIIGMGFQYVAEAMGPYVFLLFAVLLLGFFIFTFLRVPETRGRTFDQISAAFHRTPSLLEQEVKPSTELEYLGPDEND
Text: as §1, §2
Plasmid Construction, Transient Transfection and Immunoblotting. The full length GLUT1, GLUT4, and GLUT9 ORF cDNA clones were purchased from Addgene (Cambridge, Mass.) and GLUT3 ORF cDNA was purchased from Origene Technologies (Rockville, Md.). GLUT1, GLUT3, and GLUT9 were subcloned into the HindIII/SalI sites and GLUT4 was subcloned into the EcoRI/SalI sites of pEGFP-N2 expression vector (Clontech, Palo Alto, Calif.). […]

DU-145 cells = assay: MTT cell viability assay, DU-145; conditions: Homo sapiens, 72 h, 10% FBS
Method: (§3) Cell Viability Assay. Cell viability was determined using the 3-(4,5-dimethylthiazol-2-yl)-2,5-diphenyltetrazolium bromide (MTT) assay. Cancer cells were seeded at 5000 cells/well and normal cells were seeded at 8000 cells/well in 96-well plates and incubated in 10% FBS-supplemented medium for 24 h. Cells were then treated with individual agents for 72 h. Drug-containing medium was replaced with medium containing MTT (0.5 mg/mL), followed by incubation at 37° C. for 1 h. After removal of medium, the reduced MTT dye in each well was solubilized in 100 μL of DMSO and absorbance at 570 nm was measured.
(§4) Compound 30 was evaluated for antiproliferative activity in panels of different human cancer cells lines, including those of prostate, breast and pancreatic cancers. In all experiments, cells were treated with a range of concentrations of Compound 30 in the presence of 10% fetal bovine serum (FBS). Cell viability was then determined after 72 h of treatment using the 3-(4,5-dimethylthiazol-2-yl)-2,5-diphenyltetrazolium bromide (MTT) assay. […] It is noteworthy that despite this high antiproliferative potency, normal human prostate epithelial cells (PrECs) were resistant to the cytotoxic effect of Compound 30 even at 10 μM.

MDA-MB-231 cells = assay: MTT cell viability assay, MDA-MB-231; conditions: Homo sapiens, 72 h, 10% FBS
Method: as §3, §4

IC50 (GLUT1) | inhibition at 5 µM (GLUT1) | inhibition at 5 µM (GLUT4) | IC50 (GLUT4; LNCaP cells overexpressing GLUT4, read-out: IC50 for GLUT4-mediated [3H]2-DG uptake) | IC50 (DU-145 cells) | IC50 (MDA-MB-231 cells) | SMILES
5000 nM | 53% | 32% | – | – | – | CCC(CC)CN1C(=O)S/C(=C\c2ccc(O)c(C(F)(F)F)c2)C1=O [Compound 5]
2000 nM | 73% | 42% | ≥ 5000 nM | 1500 to 1700 nM | 1900 nM | CC(CN1C(=O)S/C(=C\c2ccc(O)c(C(F)(F)F)c2)C1=O)(CC(F)(F)F)CC(F)(F)F [Compound 30, 5-(4-Hydroxy-3-trifluoromethyl-benzylidene)-3-[4,4,4-trifluoro-2-methyl-2-(2,2,2-trifluoro-ethyl)-butyl]-thiazolidine-2,4-dione]

From patent US9174951B2, “Glucose transporter inhibitors” (The Ohio State University Research Foundation, priority 2012, dated 2015)
